The assay has as its target human chemokine receptor CXCR7 (Homo sapiens (Human), UniProt P25106). The assay is described as follows: Tango CXCR7-bla U2OS beta-arrestin recruitment assay (beta-lactamase reporter, FRET), antagonism of CXCL12/SDF1-α.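 Also: compounds preincubated 15 min before CXCL12 addition, then 22 h at 37 °C, FRET emission ratio read with CCF4-AM substrate after 2 h.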 It is filed as cell-based. The note with it: antagonistic effect on CXCR7; Tango CXCR7-bla U2OS cells, CXCL12/SDF1-α at its EC80. A general note: Arrestin recruitment assays detect the binding of arrestin to an activated receptor.
Chain of human chemokine receptor CXCR7 (P25106 whole entry): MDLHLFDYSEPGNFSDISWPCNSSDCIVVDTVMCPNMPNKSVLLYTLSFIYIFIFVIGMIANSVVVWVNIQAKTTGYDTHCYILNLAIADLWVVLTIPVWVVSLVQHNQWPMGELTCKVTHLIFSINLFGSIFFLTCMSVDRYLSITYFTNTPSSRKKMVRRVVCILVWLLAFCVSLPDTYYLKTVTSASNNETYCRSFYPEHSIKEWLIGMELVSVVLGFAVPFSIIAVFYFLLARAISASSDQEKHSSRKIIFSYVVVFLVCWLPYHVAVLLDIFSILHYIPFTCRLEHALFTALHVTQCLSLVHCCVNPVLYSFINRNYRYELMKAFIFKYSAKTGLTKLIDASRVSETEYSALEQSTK
In the case of `O=C(N[C@@H]1CCN(CC2CC2)C[C@H]1C(=O)NC1(c2ccc(F)cn2)CC1)c1cc(-c2c(F)cc(F)cc2F)on1` (racemic) [Example 1.144, rac-(3R*,4R*)-1-Cyclopropylmethyl-4-{[5-(2,4,6-trifluoro-phenyl)-isoxazole-3-carbonyl]-amino}-piperidine-3-carboxylic acid [1-(5-fluoro-pyridin-2-yl)-cyclopropyl]-amide], the midpoint of inhibition, the IC50, lay at 178 nM.
Turning to `CC[C@@H]1CCC[C@H]1N1CC[C@@H](NC(=O)c2cc(-c3ccc(F)cc3F)on2)[C@H](C(=O)N(C)C)C1` [Example 2.015], the IC50 (usually the midpoint of a concentration-inhibition curve) is 54 nM.
`O=C(N[C@H]1CCN(CC2CC2)C[C@@H]1C(=O)NC1(c2ncccn2)CC1)c1nnc(-c2ccc(F)cc2F)s1` [Example 7.016, (3S,4S)-1-Cyclopropylmethyl-4-{[5-(2,4-difluoro-phenyl)-[1,3,4]thiadiazole-2-carbonyl]-amino}-piperidine-3-carboxylic acid (1-pyrimidin-2-yl-cyclopropyl)-amide] registered an IC50 of 2 nM.
Consider `C[C@@H]1CCC[C@H]1N1CC[C@@H](NC(=O)c2cc(-c3ccc(F)cc3F)on2)[C@H](C(=O)N(C)C)C1` [Example 2.023a], for which it took 9 nM to reach half-maximal inhibition (IC50).
In the case of `O=C(N[C@@H]1CCN(CC2CC2)C[C@H]1C(=O)NCCc1ccccn1)c1cc(-c2ccc(F)cc2F)on1` [Example 2.08] it was 311 nM; in that of `CN(C)C(=O)[C@@H]1CN(C2CCCC23CC3)CC[C@H]1NC(=O)c1cc(-c2ccc(F)cc2F)on1` (stereo partly drawn) [Example 2.047], 145 nM; in that of `O=C(N[C@@H]1CCN(CC2CC2)C[C@H]1C(=O)NC1(c2ccccn2)CC1)c1cc(-c2ccc(F)cc2F)no1` (racemic) [Example 1.174, rac-(3R*,4R*)-1-Cyclopropylmethyl-4-{[3-(2,4-difluoro-phenyl)-isoxazole-5-carbonyl]-amino}-piperidine-3-carboxylic acid (1-pyridin-2-yl-cyclopropyl)-amide], 36 nM.
In the case of `C[C@@H]1CCC[C@H]1N1CC[C@@H](NC(=O)c2cc(-c3ccc(F)cc3F)no2)[C@H](C(=O)N[C@H](C)C2CCC2)C1` (relative stereo) [Example 1.162, (3R*,4R*)-4-{[3-(2,4-Difluoro-phenyl)-isoxazole-5-carbonyl]-amino}-1-((1RS,2RS)-2-Methyl-cyclopentyl)-piperidine-3-carboxylic acid ((R)-1-cyclobutyl-ethyl)-amide], the midpoint of inhibition, the IC50, lay at 638 nM.
`CC(C)CCN1CC[C@@H](NC(=O)c2cc(-c3ccc(F)cc3F)on2)[C@H](C(=O)N(C)C)C1` [Example 2.021] had an IC50 of 293 nM.
The molecule `CN(C)C(=O)[C@@H]1CN(C2CCCC2)CC[C@H]1NC(=O)c1cc(-c2c(F)cc(F)cc2F)on1` (racemic) [Example 1.099, rac-(3R*,4R*)-1-Cyclopentyl-4-{[5-(2,4,6-trifluoro-phenyl)-isoxazole-3-carbonyl]-amino}-piperidine-3-carboxylic acid dimethylamide] gave a 50% inhibitory concentration (IC50) of 131 nM.
`C[C@@H]1CCC[C@H]1N1CC[C@@H](NC(=O)c2cn(-c3ccc(F)cc3F)nn2)[C@H](C(=O)N(C)C)C1` (relative stereo) [Example 1.098, (3R*,4R*)-4-{[1-(2,4-Difluoro-phenyl)-1H-[1,2,3]triazole-4-carbonyl]-amino}-1-((1RS,2RS)-2-Methyl-cyclopentyl)-piperidine-3-carboxylic acid dimethylamide]: the IC50 stood at 276 nM.
For the molecule `COc1ccccc1C1(NC(=O)[C@@H]2CN(CC3CC3)CC[C@H]2NC(=O)c2cc(-c3ccc(F)cc3F)on2)CC1` (racemic) [Example 1.198, rac-(3R*,4R*)-1-Cyclopropylmethyl-4-{[5-(2,4-difluoro-phenyl)-isoxazole-3-carbonyl]-amino}-piperidine-3-carboxylic acid [1-(2-methoxy-phenyl)-cyclopropyl]-amide], the IC50 amounted to 52 nM.
